Reference: ChEMBL document CHEMBL3244221, “Attempted inhibition of histidine decarboxylase with beta-alkyl analogues of histidine” (J Med Chem, 1977)
The source made the active and inactive calls. No cut-off for these calls is given here.

How the values were obtained:
[1] = target: T1, Histidine decarboxylase (Rattus norvegicus) (UniProt P16453); assay: Inhibition of histidine decarboxylase in Sprague-Dawley rat stomach using L-histidine-carboxyl-[14C] as substrate at 4 X 10^-6 M after 30 mins by scintillation counting analysis relative to control
T1 sequence (whole entry): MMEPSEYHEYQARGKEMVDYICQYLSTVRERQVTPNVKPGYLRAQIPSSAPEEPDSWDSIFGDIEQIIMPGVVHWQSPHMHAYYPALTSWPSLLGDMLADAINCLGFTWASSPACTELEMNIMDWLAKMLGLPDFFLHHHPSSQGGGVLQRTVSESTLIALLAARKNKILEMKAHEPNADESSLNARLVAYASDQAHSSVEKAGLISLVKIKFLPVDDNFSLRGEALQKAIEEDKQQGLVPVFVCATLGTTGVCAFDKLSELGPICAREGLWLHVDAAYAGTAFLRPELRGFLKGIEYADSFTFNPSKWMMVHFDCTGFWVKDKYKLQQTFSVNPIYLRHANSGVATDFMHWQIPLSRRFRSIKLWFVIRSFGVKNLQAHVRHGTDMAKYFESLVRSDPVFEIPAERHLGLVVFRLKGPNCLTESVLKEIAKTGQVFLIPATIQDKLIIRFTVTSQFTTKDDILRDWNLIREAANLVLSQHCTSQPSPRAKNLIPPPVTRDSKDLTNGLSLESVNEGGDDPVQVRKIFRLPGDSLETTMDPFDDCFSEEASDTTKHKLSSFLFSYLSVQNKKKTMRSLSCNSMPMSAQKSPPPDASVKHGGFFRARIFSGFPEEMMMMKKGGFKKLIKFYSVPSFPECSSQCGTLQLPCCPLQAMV

[2] = target: T1, Histidine decarboxylase (Rattus norvegicus); assay: Inhibition of histidine decarboxylase in Sprague-Dawley rat stomach using L-histidine-carboxyl-[14C] as substrate at 1 X 10^-4 M after 30 mins by scintillation counting analysis

| SMILES | inhibition [1] | inhibition [2] |
| --- | --- | --- |
| CCC(c1c[nH]cn1)C(N)C(=O)OC (mixture of isomers) | 50% | inactive |
| CCCCCCC(c1c[nH]cn1)C(N)C(=O)O (mixture of isomers) |  | inactive |
| CC(c1c[nH]cn1)C(N)C(=O)O (configuration not stated) |  | inactive |
| COC(=O)C(N)C(C)c1c[nH]cn1 (mixture of isomers) | 50% | inactive |
| CCC(c1c[nH]cn1)C(N)C(=O)O (mixture of isomers) |  | inactive |
